Data: ChEMBL document CHEMBL4828781, “Novel Heteroaromatic Carboxamide Derivatives as Plasma Kallikrein Inhibitors for Treating Diabetic Complications, Ocular Diseases and Edema-Associated Diseases” (ACS Med Chem Lett, 2021)

Target: Plasma kallikrein (Homo sapiens, UniProt P03952)
Test: Inhibition of human plasma kallikrein using […] as fluorogenic substrate measured every 2 mins for 12 mins by microplate reader analysis

Chain of Plasma kallikrein (P03952 20-390 limits assumed): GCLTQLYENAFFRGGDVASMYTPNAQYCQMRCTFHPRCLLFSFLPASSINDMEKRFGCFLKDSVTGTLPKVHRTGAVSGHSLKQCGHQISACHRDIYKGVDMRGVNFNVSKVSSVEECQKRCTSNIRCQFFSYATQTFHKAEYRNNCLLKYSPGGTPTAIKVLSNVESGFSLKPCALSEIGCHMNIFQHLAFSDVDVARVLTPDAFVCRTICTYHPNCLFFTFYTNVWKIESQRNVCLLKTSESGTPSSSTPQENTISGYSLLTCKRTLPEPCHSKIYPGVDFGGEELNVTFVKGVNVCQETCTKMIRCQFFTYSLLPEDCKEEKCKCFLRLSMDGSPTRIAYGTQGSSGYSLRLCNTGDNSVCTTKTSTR
Chain of Plasma kallikrein (P03952 391-638 limits assumed): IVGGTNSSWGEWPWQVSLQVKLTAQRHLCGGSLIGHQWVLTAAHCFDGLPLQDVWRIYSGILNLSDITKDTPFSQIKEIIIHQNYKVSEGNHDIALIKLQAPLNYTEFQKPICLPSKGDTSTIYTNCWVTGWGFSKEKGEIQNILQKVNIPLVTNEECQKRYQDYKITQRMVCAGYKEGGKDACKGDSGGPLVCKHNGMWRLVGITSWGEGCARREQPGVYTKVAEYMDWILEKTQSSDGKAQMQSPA

## Cc1c(Cn2cnc(C(=O)N[C@@H]3CCc4c3ncn4C)c2)ccc(N2CC3CC3C2)c1C#N (stereo partly specified)
  IC50: 0.3 nM
